Patent US20140099634A1, “USE OF PRE-MRNA SPLICING IN PLATELET CELLS FOR THE DIAGNOSIS OF DISEASE” (priority 2007, published 2014)

Assays:
[1] = tested on: TF pre-mRNA splicing in platelets; experiment: TF pre-mRNA splicing in platelets (PCR); format: cell-based, human; conditions: for pre-mRNA splicing events in platelets: commonly used medications in patients
Description: TF pre-mRNA splicing may be measured by any method known in the art, including, but not limited to, PCR using primers that target sequences in exon four (5′-[…]-3′; SEQ ID NO: 1) and five (5′-[…]-3′; SEQ ID NO: 2), and thus span intron four^3. Likewise, detection of full-length mature mRNA for human TF (mHTF) in platelets may be measured using any method known in the art, including, but not limited to, using primers targeting sequences in exon one (5′-[…]-3′; SEQ ID NO: 3) and exon six (5′-[…]-3′; SEQ ID NO: 4). In light of the disclosure herein, a person of ordinary skill in the art may select and use alternative primers based on the sequence of the gene/RNA^54. Primer design may be aided by the use of available computer programs, such as OLIGO™ (available from Hitachi Software), Primer3 (available online from the University of Massachusetts Medical School), GeneFisher (available online from the Universitat Bielefeld, Germany), or OligoAnalyzer (available from Integrated DNA Technologies, Inc.).
Platelets were isolated from each patient within 48 hours of admission to the ICU and TF mRNA expression patterns were characterized in each patient. In addition, clinical data for each patient including age and gender, admission diagnoses, APACHE II score, laboratory and microbiology results, and mortality were also collected. When feasible, platelets were also isolated from blood that was obtained on days three, five, and ten. The blood samples were processed immediately. Pre-mRNA splicing was also evaluated in platelets isolated from healthy volunteers (age 18-50) that were not taking medications. Platelets isolated from patients with sepsis and routine healthy control donors were processed in parallel.
Platelets from healthy subjects were left quiescent or activated with α-toxin (10 ng/ml; List Biological Laboratories Inc.) or lipopolysaccharide (LPS; 100 ng/ml; Sigma), toxins produced by gram-positive Staph. aureus and gram-negative E. Coli, respectively. Platelets were kept quiescent or activated in suspension with MRSA or E. coli at a bacteria to platelet ratio of 1:10. The bacteria were obtained from blood cultures from sepsis patients by ARUP, a national reference laboratory under standard conditions. For these studies, the bacteria were swiped from the culture plate, re-suspended, and the desired concentration was adjusted against a standard solution using a colorimeter (Vitek Colorimeter, bioMéreux, Inc.).

SRPK2 = SRPK2 (Homo sapiens, UniProt P78362); conditions: concentrations up to 1 μM; cited from earlier work
Sequence of SRPK2 (P78362 whole entry, species assumed): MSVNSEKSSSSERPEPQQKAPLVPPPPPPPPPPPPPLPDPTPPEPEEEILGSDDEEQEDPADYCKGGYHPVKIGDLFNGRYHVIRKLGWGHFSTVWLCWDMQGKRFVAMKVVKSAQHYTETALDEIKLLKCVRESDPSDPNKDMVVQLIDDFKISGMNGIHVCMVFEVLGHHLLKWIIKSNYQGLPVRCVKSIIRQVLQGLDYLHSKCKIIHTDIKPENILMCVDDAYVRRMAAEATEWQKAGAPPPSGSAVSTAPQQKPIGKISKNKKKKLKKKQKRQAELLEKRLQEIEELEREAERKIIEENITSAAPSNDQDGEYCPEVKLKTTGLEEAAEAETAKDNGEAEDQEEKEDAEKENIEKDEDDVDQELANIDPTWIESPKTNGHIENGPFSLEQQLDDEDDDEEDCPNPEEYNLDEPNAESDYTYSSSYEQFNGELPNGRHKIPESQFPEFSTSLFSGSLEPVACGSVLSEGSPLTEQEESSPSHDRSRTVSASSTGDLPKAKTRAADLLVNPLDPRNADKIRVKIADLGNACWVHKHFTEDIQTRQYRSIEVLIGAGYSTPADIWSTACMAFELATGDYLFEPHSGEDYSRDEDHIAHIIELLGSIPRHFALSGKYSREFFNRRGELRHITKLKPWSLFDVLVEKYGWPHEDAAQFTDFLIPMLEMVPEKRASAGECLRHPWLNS

PKA = conditions: concentrations up to 1 μM; cited from earlier work
SRPK1 = SRPK1 (Homo sapiens, UniProt Q96SB4); conditions: concentrations up to 1 μM; cited from earlier work
Sequence of SRPK1 (Q96SB4 whole entry, species assumed): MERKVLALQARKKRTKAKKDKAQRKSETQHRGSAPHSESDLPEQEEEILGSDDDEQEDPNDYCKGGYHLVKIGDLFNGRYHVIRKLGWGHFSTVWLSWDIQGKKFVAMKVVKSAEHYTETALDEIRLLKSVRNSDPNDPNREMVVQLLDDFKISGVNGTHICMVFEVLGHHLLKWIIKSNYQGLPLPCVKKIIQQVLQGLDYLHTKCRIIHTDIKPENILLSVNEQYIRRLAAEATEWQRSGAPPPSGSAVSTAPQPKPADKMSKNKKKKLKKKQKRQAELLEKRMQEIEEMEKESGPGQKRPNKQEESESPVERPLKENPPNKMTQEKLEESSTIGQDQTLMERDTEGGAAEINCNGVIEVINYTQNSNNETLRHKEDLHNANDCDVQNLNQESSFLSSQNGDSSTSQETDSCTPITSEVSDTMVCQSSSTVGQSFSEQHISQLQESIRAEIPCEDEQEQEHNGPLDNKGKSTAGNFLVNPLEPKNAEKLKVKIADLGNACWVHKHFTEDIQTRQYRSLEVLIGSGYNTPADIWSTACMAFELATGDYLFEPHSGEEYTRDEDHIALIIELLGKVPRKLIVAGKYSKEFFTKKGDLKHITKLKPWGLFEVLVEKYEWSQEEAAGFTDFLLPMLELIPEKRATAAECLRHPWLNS

platelets [2] = experiment: Plasma clot formation by activated platelets or their membranes; format: cell-based, human; conditions: platelets activated with thrombin for 2 hours, FIG. 5
platelets [3] = conditions: cited from earlier work
PKC = conditions: concentrations up to 1 μM; cited from earlier work

CC(=O)Oc1ccccc1C(=O)O [Aspirin]
pre-mRNA splicing events in platelets [1]: do not affect
signal-dependent TF pre-mRNA splicing ([1]; platelets of elderly subject taking aspirin 325 mg daily, thrombin 0.05 U/ml for 1 hour, FIG. 2): does not block

CCN1/C(=C/C(C)=O)Sc2ccc(OC)cc21 [Tg003, (Z)-1-(3-Ethyl-5-methoxy-2,3-dihydrobenzothiazol-2-ylidene)propan-2-one]
pre-mRNA splicing ([1]; platelets activated with thrombin, FIG. 5): blocks pre-mRNA splicing
effect on SRPK2 activity (SRPK2): does not affect
effect on PKA activity (PKA): does not affect
effect on SRPK1 activity (SRPK1): does not affect
plasma clot formation (platelets [2]): reduces clot formation
platelet adhesion, spreading, and aggregation (platelets [3]): does not alter
effect on PKC activity (PKC): does not affect

CC(=O)CC(c1ccccc1)c1c(O)c2ccccc2oc1=O (stereo not drawn) [warfarin]
pre-mRNA splicing events in platelets [1]: do not affect

heparin
TF pre-mRNA splicing ([1]; platelets of septic patients who received heparin to prevent VTE): does not block

lipopolysaccharide [LPS]
induction of TF pre-mRNA splicing ([1]; platelets from healthy volunteers, 2 hours, FIGS. 11 and 12): induced TF pre-mRNA splicing
